Several values for one entry are separate records, joined by “and”; a condition that tells them apart may be missing. Identical values can stand only once. Inconclusive results and toxic doses are left out.
System: L1210 leukemia ip in BDF1 mice, survival T/C
Assay: NCI In Vivo Anticancer Drug Screen. Data for tumor model L1210 Leukemia (intraperitoneal) in B6D2F1 (BDF1) mice
Conditions: endpoint: mean survival time, higher = longer survival
Outline: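 Tumor was transplanted into mice, which were then dosed with test compound or vehicle alone. Survival was recorded for each group, and the treated figure was expressed relative to the control figure.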

NC(=O)c1cn(C2OC(CO)C(O)C2O)c2ncnc(N)c12 (centres undefined)
T/C (dose: 0.1 mg/kg/injection, schedule: Q01DX Z (ip), vehicle: carboxymethylcellulose (CMC)): 123 % of control
T/C (dose: 0.12 mg/kg/injection, schedule: Q01DX009 (ip), vehicle: saline): 118 % of control
T/C (dose: 0.16 mg/kg/injection, schedule: Q01DX009 (ip), vehicle: saline): 119 % of control
T/C (dose: 0.16 mg/kg/injection, schedule: Q#A X034 (ip), vehicle: carboxymethylcellulose (CMC)): 116 % of control
T/C (dose: 0.19 mg/kg/injection, schedule: Q01DX005 (ip), vehicle: saline): 123 % of control
T/C (dose: 0.19 mg/kg/injection, schedule: Q01DX009 (ip), vehicle: saline): 121 % of control
T/C (dose: 0.2 mg/kg/injection, schedule: Q01DX Z (ip), vehicle: carboxymethylcellulose (CMC)): 121 % of control
T/C (dose: 0.25 mg/kg/injection, schedule: Q01DX001 (sc), vehicle: saline): 100 % of control
T/C (dose: 0.32 mg/kg/injection, schedule: Q01DX017 (ip), vehicle: carboxymethylcellulose (CMC)): 94 % of control
T/C (dose: 0.32 mg/kg/injection, schedule: Q02DX009 (ip), vehicle: carboxymethylcellulose (CMC)): 100 % of control
T/C (dose: 0.32 mg/kg/injection, schedule: Q04DX005 (ip), vehicle: carboxymethylcellulose (CMC)): 104 % of control
T/C (dose: 0.32 mg/kg/injection, schedule: Q#A X034 (ip), vehicle: carboxymethylcellulose (CMC)): 104 % of control
T/C (dose: 0.37 mg/kg/injection, schedule: Q01DX009 (ip), vehicle: Klucel (hydroxypropylcellulose) (HPC)): 107 % of control
T/C (dose: 0.39 mg/kg/injection, schedule: Q01DX009 (ip), vehicle: saline): 108 % of control
T/C (dose: 0.5 mg/kg/injection, schedule: Q01DX001 (sc), vehicle: saline): 98 % of control
T/C (dose: 0.5 mg/kg/injection, schedule: Q01DX005 (ip), vehicle: saline): 157 % of control
T/C (dose: 0.5 mg/kg/injection, schedule: Q01DX010 (oral), vehicle: saline): 97 % of control
T/C (dose: 0.5 mg/kg/injection, schedule: Q## X003 (ip), vehicle: saline): 114 % of control
T/C (dose: 0.62 mg/kg/injection, schedule: Q01DX001 (ip), vehicle: carboxymethylcellulose (CMC)): 94 % of control
T/C (dose: 0.62 mg/kg/injection, schedule: Q01DX017 (ip), vehicle: carboxymethylcellulose (CMC)): 105 % of control
T/C (dose: 0.62 mg/kg/injection, schedule: Q02DX009 (ip), vehicle: carboxymethylcellulose (CMC)): 101 % of control
T/C (dose: 0.62 mg/kg/injection, schedule: Q04DX005 (ip), vehicle: carboxymethylcellulose (CMC)): 113 % of control
T/C (dose: 0.62 mg/kg/injection, schedule: Q08DX003 (ip), vehicle: carboxymethylcellulose (CMC)): 105 % of control
T/C (dose: 0.62 mg/kg/injection, schedule: Q#A X034 (ip), vehicle: carboxymethylcellulose (CMC)): 101 % of control
T/C (dose: 0.65 mg/kg/injection, schedule: Q01DX001 (ip), vehicle: water): 122 % of control
T/C (dose: 0.75 mg/kg/injection, schedule: Q01DX009 (ip), vehicle: saline): 112 % of control and 117 % of control
T/C (dose: 0.78 mg/kg/injection, schedule: Q01DX009 (ip), vehicle: saline): 108 % of control and 123 % of control
T/C (dose: 0.8 mg/kg/injection, schedule: Q01DX Z (ip), vehicle: water): 123 % of control
T/C (dose: 1.0 mg/kg/injection, schedule: Q01DX001 (sc), vehicle: saline): 102 % of control and 104 % of control
T/C (dose: 1.0 mg/kg/injection, schedule: Q01DX005 (ip), vehicle: saline): 165 % of control
T/C (dose: 1.0 mg/kg/injection, schedule: Q01DX006 (iv), vehicle: saline): 111 % of control
T/C (dose: 1.0 mg/kg/injection, schedule: Q01DX010 (oral), vehicle: saline): 103 % of control
T/C (dose: 1.0 mg/kg/injection, schedule: Q01DX Z (im), vehicle: saline): 109 % of control
T/C (dose: 1.0 mg/kg/injection, schedule: Q01DX Z (ip), vehicle: carboxymethylcellulose (CMC)): 120 % of control
T/C (dose: 1.0 mg/kg/injection, schedule: Q03DX005 (ip), vehicle: other): 162 % of control
T/C (dose: 1.0 mg/kg/injection, schedule: Q## X008 (ip), vehicle: saline): 150 % of control
T/C (dose: 1.25 mg/kg/injection, schedule: Q01DX001 (ip), vehicle: carboxymethylcellulose (CMC)): 119 % of control
T/C (dose: 1.25 mg/kg/injection, schedule: Q01DX017 (ip), vehicle: carboxymethylcellulose (CMC)): 89 % of control
T/C (dose: 1.25 mg/kg/injection, schedule: Q02DX009 (ip), vehicle: carboxymethylcellulose (CMC)): 103 % of control
T/C (dose: 1.25 mg/kg/injection, schedule: Q04DX005 (ip), vehicle: carboxymethylcellulose (CMC)): 110 % of control
T/C (dose: 1.25 mg/kg/injection, schedule: Q08DX003 (ip), vehicle: carboxymethylcellulose (CMC)): 106 % of control
T/C (dose: 1.5 mg/kg/injection, schedule: Q01DX009 (ip), vehicle: Klucel (hydroxypropylcellulose) (HPC)): 98 % of control
T/C (dose: 1.5 mg/kg/injection, schedule: Q01DX009 (ip), vehicle: saline with Tween-80): 114 % of control and 118 % of control
T/C (dose: 1.5 mg/kg/injection, schedule: Q01DX009 (ip), vehicle: saline): 112 % of control
T/C (dose: 1.5 mg/kg/injection, schedule: Q01DX Z (ip), vehicle: carboxymethylcellulose (CMC)): 108 % of control
T/C (dose: 1.5 mg/kg/injection, schedule: Q01DX Z (ip), vehicle: water): 101 % of control
T/C (dose: 1.56 mg/kg/injection, schedule: Q01DX005 (ip), vehicle: saline): 90 % of control
T/C (dose: 1.6 mg/kg/injection, schedule: Q01DX009 (ip), vehicle: saline): 108 % of control
T/C (dose: 1.8 mg/kg/injection, schedule: Q01DX Z (ip), vehicle: water): 152 % of control
T/C (dose: 2.0 mg/kg/injection, schedule: Q01DX001 (sc), vehicle: saline): 103 % of control and 108 % of control
T/C (dose: 2.0 mg/kg/injection, schedule: Q01DX006 (iv), vehicle: saline): 115 % of control
T/C (dose: 2.0 mg/kg/injection, schedule: Q01DX009 (ip), vehicle: saline): 96 % of control and 100 % of control
T/C (dose: 2.0 mg/kg/injection, schedule: Q01DX010 (oral), vehicle: saline): 104 % of control
T/C (dose: 2.0 mg/kg/injection, schedule: Q01DX Z (im), vehicle: saline): 117 % of control
T/C (dose: 2.0 mg/kg/injection, schedule: Q01DX Z (ip), vehicle: carboxymethylcellulose (CMC)): 105 % of control
T/C (dose: 2.0 mg/kg/injection, schedule: Q03DX005 (ip), vehicle: other): 155 % of control
T/C (dose: 2.0 mg/kg/injection, schedule: Q## X003 (ip), vehicle: saline): 220 % of control
T/C (dose: 2.0 mg/kg/injection, schedule: Q## X008 (ip), vehicle: saline): 157 % of control
T/C (dose: 2.0 mg/kg/injection, schedule: Q## X024 (ip), vehicle: saline): 155 % of control
T/C (dose: 2.4 mg/kg/injection, schedule: Q01DX009 (ip), vehicle: saline): 96 % of control
T/C (dose: 2.5 mg/kg/injection, schedule: Q01DX001 (ip), vehicle: carboxymethylcellulose (CMC)): 165 % of control
T/C (dose: 2.5 mg/kg/injection, schedule: Q02DX009 (ip), vehicle: carboxymethylcellulose (CMC)): 90 % of control
T/C (dose: 2.5 mg/kg/injection, schedule: Q04DX005 (ip), vehicle: carboxymethylcellulose (CMC)): 118 % of control
T/C (dose: 2.7 mg/kg/injection, schedule: Q01DX Z (ip), vehicle: water): 161 % of control
T/C (dose: 3.0 mg/kg/injection, schedule: Q01DX001 (ip), vehicle: water): 157 % of control
T/C (dose: 3.0 mg/kg/injection, schedule: Q01DX009 (ip), vehicle: saline with Tween-80): 110 % of control
T/C (dose: 3.0 mg/kg/injection, schedule: Q01DX Z (ip), vehicle: water): 104 % of control
T/C (dose: 3.0 mg/kg/injection, schedule: Q03DX005 (ip), vehicle: other): 157 % of control and 170 % of control
T/C (dose: 4.0 mg/kg/injection, schedule: Q01DX001 (ip), vehicle: clinical formulation): 159 % of control
T/C (dose: 4.0 mg/kg/injection, schedule: Q01DX001 (sc), vehicle: saline): 102 % of control and 107 % of control
T/C (dose: 4.0 mg/kg/injection, schedule: Q01DX006 (iv), vehicle: saline): 91 % of control
T/C (dose: 4.0 mg/kg/injection, schedule: Q01DX010 (oral), vehicle: saline): 101 % of control
T/C (dose: 4.0 mg/kg/injection, schedule: Q01DX Z (im), vehicle: saline): 108 % of control
T/C (dose: 4.0 mg/kg/injection, schedule: Q## X008 (ip), vehicle: saline): 170 % of control
T/C (dose: 4.0 mg/kg/injection, schedule: Q## X024 (ip), vehicle: saline): 97 % of control
T/C (dose: 5.0 mg/kg/injection, schedule: Q01DX001 (ip), vehicle: water): 185 % of control
T/C (dose: 5.0 mg/kg/injection, schedule: Q01DX001 (oral), vehicle: saline): 102 % of control and 103 % of control
T/C (dose: 5.0 mg/kg/injection, schedule: Q03DX005 (ip), vehicle: other): 162 % of control
T/C (dose: 5.0 mg/kg/injection, schedule: Q08DX003 (ip), vehicle: carboxymethylcellulose (CMC)): 121 % of control
T/C (dose: 8.0 mg/kg/injection, schedule: Q## X003 (ip), vehicle: saline): 109 % of control
T/C (dose: 8.0 mg/kg/injection, schedule: Q## X008 (ip), vehicle: saline): 195 % of control
T/C (dose: 10.0 mg/kg/injection, schedule: Q01DX001 (oral), vehicle: saline): 105 % of control
T/C (dose: 16.0 mg/kg/injection, schedule: Q01DX001 (ip), vehicle: saline): 102 % of control
T/C (dose: 20.0 mg/kg/injection, schedule: Q01DX001 (oral), vehicle: saline): 112 % of control

Reference: PubChem BioAssay AID248 (DTP/NCI, 2004)
